# Assays:
# LdecOBP33 [1] = test: Competitive fluorescence displacement binding assay (1-NPN reporter); set-up: species or system Leptinotarsa decemlineata; conditions: for IC50 / displacement of the 1-NPN probe: 2 µM LdecOBP33, 2 µM 1-NPN; for IC50: competitor 0-450 µM, 20 mM Tris pH 7.4, 25 °C, mean ± SE (n = 3); for displacement of the 1-NPN probe: competitor up to 450 µM; for Ki: calculated from IC50 with Cheng and Prusoff equation, Ki=IC50/(1+NPN/KdNPN)
# Protocol: (§1) N-phenyl-1-naphthylamine (1-NPN) was used as a fluorescent reporter to assess the ligand-binding affinity of LdecOBP33 toward various plant volatiles and pesticides; this was chosen due to its reported success in prior studies. […] Each assay was performed at 25 ± 1 °C in a 96-well flat-bottom black plate with a final volume of 200 µL and 3 replicates. The relative fluorescence intensity was measured with a 337 nm/10 nm excitation filter and a 413 nm/10 nm emission filter, using a multi-mode Tecan Spark® plate reader. […] The equation Ki=IC50/(1+NPN/KdNPN) was used to calculate the Ki values of the competitor ligands.
# [2] = ref PubChem database (accessed on 31 October 2025); cited from earlier work
# LdecOBP33 [3] = test: Saturation fluorescence binding assay of 1-NPN with recombinant LdecOBP33; set-up: species or system Leptinotarsa decemlineata; conditions: 2 µM LdecOBP33, 1-NPN 0-25 µM, 20 mM Tris pH 7.4, 25 °C; one-site saturation binding accounting for ligand depletion; read-out: dissociation constant (Kd)
# Protocol: as §1
# CPB [4] = test: Baseline mortality exposure to imidacloprid in adults, resistant vs susceptible strains; type: in vivo, Leptinotarsa decemlineata
# Text: Two different populations of CPBs were used for this study. The susceptible CPB population was purchased from French Agricultural Research (Lamberton, MN, USA). This population was initially collected in 2003 from Long Island, NY; following this, it was reared in laboratory conditions with no pesticide exposure. Neonicotinoid-resistant CPBs were collected from the University of Maine Aroostook Research Farm (Presque Isle, ME, USA). Baseline mortality exposure to imidacloprid in adults indicated a ~30-fold resistance ratio between the resistant and susceptible strains. Both CPB populations were reared in a Penn State facility greenhouse at 25 ± 1 °C under a 16:8 L/D photoperiod. Beetles were fed a constant supply of Red Norland potato plants and housed in insect and butterfly habitat cages (Restcloud, Guangzhou, China). Eggs were collected from plants and stored in Petri dishes maintained at 25 ± 1 °C and 60 ± 5% humidity under a 16:8 L/D photoperiod, located within a rearing room. Newly emerged first-instar larvae fed upon fresh potato plant leaflets up to the third instar and were then transferred back to the greenhouse.
# CPB [5] = test: Whole-antenna contact bioassay with imidacloprid; type: in vivo, Leptinotarsa decemlineata; conditions: for mortality: after 36 h; for mortality / average mortality: 0.5 µL of 0.45 µg/µL per antenna
# Protocol: After feeding with RNAi, the control or LdecOBP33 knockdown male CPBs were placed individually into fresh Petri dishes and anesthetized on ice for 10 min. Afterwards, 0.5 µL of an imidacloprid solution (Sigma Aldrich, St. Louis, MO, USA)—at various concentrations—in acetone was topically applied to each antenna of each CPB using a Hamilton 25 µL model #702 syringe (Hamilton, Reno, NV, USA). Care was taken to ensure that the pesticide solution was applied exclusively to the antennae. […] After treatment, all CPBs were placed in a fresh Petri dish with fresh potato leaves; the dish was kept in a rearing room maintained at 25 ± 1 °C, 60 ± 5% humidity, and a 16:8 L/D photoperiod. CPB mortality was assessed at 0, 3, 6, and 12 h, and every 12 h thereafter, for a total of five days post-treatment. The determination of recovery for individual CPBs after pesticide treatment was adapted from prior studies using three criteria. […] Second, beetles were placed prone and given two minutes to flip upright; those unable to do so were classified as dead. Finally, beetles were placed upside down on the handle of a paintbrush to assess their mobility; individuals that could not walk their full body length or fell off were considered dead. Six biological replicates were conducted, each consisting of 8–10 beetles.
SMILES,IC50 (LdecOBP33 [1]),displacement of the 1-NPN probe (LdecOBP33 [1]),Ki (LdecOBP33 [1]),LogP [2],also measured
CCOP(=S)(OCC)Oc1nc(Cl)c(Cl)cc1Cl [Chlorpyrifos],45.8 ± 3.53 µM,over 50%,34.4 µM,4.96,
CCCCCCCCC=O [Nonanal],7.29 ± 0.53 µM,over 50%,,3.30,
C=C[C@](C)(O)CCC=C(C)C [L-Linalool],48.3 ± 1.77 µM,over 50%,36.2 µM,,
COP(=S)(OC)Oc1nc(Cl)c(Cl)cc1Cl [Chlorpyrifos-methyl],63.7 ± 3.32 µM,over 50%,47.8 µM,4.30,
"c1ccc(Nc2cccc3ccccc23)cc1 [1-NPN, N-phenyl-1-naphthylamine]",,,,,Kd (LdecOBP33 [3]): 4.53 ± 0.31 µM
CC/C=C/CCO [(E)-3-Hexen-1-ol],> 450 µM,No noticeable displacement,> 338 µM,1.30,
CC(C)=CC1C(C(=O)OCN2C(=O)C3=C(CCCC3)C2=O)C1(C)C (stereo not shown) [Tetramethrin],29.1 ± 1.78 µM,over 50%,21.8 µM,4.70,
CN/C(=N\[N+](=O)[O-])NCc1cnc(Cl)s1 [Clothianidin],94.5 ± 4.24 µM,over 50%,71 µM,0.70,
CCC/C=C/C=O [(E)-2-Hexenal],401 ± 16.3 µM,over 50%,301 µM,1.50,
O=[N+]([O-])NC1=NCCN1Cc1ccc(Cl)nc1 [Imidacloprid],263 ± 15.2 µM,over 50%,197 µM,0.57,"resistance ratio between the resistant and susceptible strains (CPB [4]): ~ 30 fold; increase of mortality, dsLdecOBP33-treated vs control (CPB [5]; by 120 h): 19%; mortality (CPB [5]; control (dsGFP) resistant males): 55%; average mortality (CPB [5]; control (dsGFP) resistant males, by 120 h): 12%; mortality (CPB [5]; dsLdecOBP33-KD resistant males): 81%; average mortality (CPB [5]; dsLdecOBP33-treated resistant males, by 120 h): 32%; LD50 (CPB [5]; preliminary tests, 0.5 µL application in acetone to each antenna): 0.45 µg/µL"
CC/C=C\CCOC(=O)CCC [(Z)-3-Hexenyl-butyrate],24 ± 2.05 µM,over 50%,18 µM,,
CNC(=O)Oc1cccc2ccccc12 [Carbaryl],> 450 µM,No noticeable displacement,> 338 µM,,
COC(=O)c1ccccc1O [Methyl salicylate],396 ± 20 µM,over 50%,298 µM,2.50,
OC[C@H]1OC(O)[C@H](O)[C@@H](O)[C@@H]1O (stereo partly drawn) [D-Glucose],> 450 µM,No noticeable displacement,> 338 µM,,
